Results on three compounds are retold here after patent publication US4427698A, “Use of N,N-dimethyl-N'-p-tolyl-N'-dichlorofluoromethylthio-sulphamide for combating fungi which damage wood” (Bayer Aktiengesellschaft, priority 1978, dated 1984).

The subject of data set [1] is male rats. The note with it: comparison substance pentachlorophenol; cited from earlier work.
In the next data set the test system is rats. The settings on record: Caines, Toxycology and Applied Pharmacology 14, 515 (1969); cited from earlier work.
The nature of data set [2]: cumulative and percutaneous toxic action. Format: in vivo. The settings on record: in contrast to known active compounds, for example pentachlorophenol.
The next data set relates to Coriolus versicolor. As to the kind of experiment: activity against wood-damaging fungi. The data set is classed as cell-based.
A short description of data set [3]: Solubilities in % by weight. Format: physicochemical. The text has this:
Solubilities in % by weight of N,N-dimethyl-N'-p-tolyl-N'-dichlorofluoromethylthio-sulphamide (A) compared with N,N-dimethyl-N'-phenyl-N'-dichlorofluoromethylthio-sulphamide (B) and N-dichlorofluoromethylthio-phthalimide (C).

Data set [4] can be described thus: Peroral toxicity, single administration by probang to male rats. The note with it: rat, in vivo, po, dissolved in acetone, Probit analysis, read-out: LD50 perorally. The method, then:
The LD50 was calculated by means of Probit analysis (Fink et al, Methods of information in medicin 5, 19, 1966).

For another data set, the system named is Poria Vaporaria. Briefly: MIC determination in agar (beer wort and peptone). The data set is classed as cell-based. The method, then: (§1) Determination of the minimum inhibitory concentration (MIC)
(§2) The active compound according to the invention is added, in concentrations of 2 mg/l to 5,000 mg/l, to an agar which is prepared from beer wort and peptone. After storing for 2 weeks at 28° C. and 60-70% relative atmospheric humidity the MIC is determined.

For a further data set, the system named is Chaetomium globosum. As to the kind of experiment: MIC determination in agar (beer wort and peptone). The data set is classed as cell-based. The method, then:
as §1, §2

The subject of a further data set is Ceratocystis pini. Briefly: MIC determination in agar (beer wort and peptone). The data set is classed as cell-based. The method, then: as §1, §2
The subject of the next data set is Coniophora cerebella. As to the kind of experiment: MIC determination in agar (beer wort and peptone). Format: cell-based. The method, then:
as §1, §2

For data set [5], the system named is Ceratocystis coerulenceus. Briefly: MIC determination in agar (beer wort and peptone). The data set is classed as cell-based. The method, then: as §1, §2
A further data set concerns Lentinus tigrinus. Briefly: MIC determination in agar (beer wort and peptone). Format: cell-based. On the procedure:
as §1, §2

Data set [6] is described as follows: Cutaneous treatment of male rats. The settings on record: rat, in vivo, topical or ocular, read-out: LD50 cutaneously. The data set is classed as in vivo, rat.
Data set [7] has as its system male rats. Briefly: Cutaneous treatment of male rats. The data set is classed as in vivo, rat. The note with it: cutaneous treatment.
The next data set relates to Ceratocystis piceae. As to the kind of experiment: activity against wood-damaging fungi. The data set is classed as cell-based.
The mark [8] stands for this setting: Benzine fraction, boiling point 140-190° C.
The mark [9] stands for this setting: Mixture of aromatic hydrocarbons, boiling point 159-175° C.
Where [10] appears, read: 336 h, 2 weeks at 28° C., 60-70% relative humidity.

Values after ≈ are worked out from the molar mass of the structure shown. Bounds are passed on as bounds.

The LD50 is the dose expected to kill half of the subjects tested. In general, MIC refers to the lowest concentration that inhibits growth of the organism. A low value points to inhibition by little substance.

As to `Oc1c(Cl)c(Cl)c(Cl)c(Cl)c1Cl` [Pentachlorophenol], in the data set on male rats [1], the LD50 cutaneously is on record as 325 mg/kg and the “percutaneous toxic action (in words)” value was “has a toxic action”. In the data set on rats, the LD50 perorally is 160 mg/kg of body weight.
As for `Cc1ccc(N(SC(F)(Cl)Cl)S(=O)(=O)N(C)C)cc1` [A, N,N-dimethyl-N'-p-tolyl-N'-dichlorofluoromethylthio-sulphamide], the “cumulative or percutaneous toxic action (in words)” value in [2] was “neither a cumulative nor a percutaneous toxic action”. Further, the “active against wood-damaging fungi” value (in the data set on Coriolus versicolor; in the data set on Poria Vaporaria (Poria vaporaria); with Chaetomium globosum; with Ceratocystis pini; with Coniophora cerebella; in [5]) was “active” in each case. In addition, the “active against wood-damaging fungi” value with Lentinus tigrinus and in the data set on Ceratocystis piceae was “active” throughout. The Solubility came out at 2.5 % by weight in data set [3] (setting [8]); 33 % by weight in [3] (Ethyl acetate); 5 % by weight in [3] (Methanol); 20 % by weight in data set [3] (setting [9]); 29 % by weight in [3] (Xylene). Further, the “solubility (in words)” value in data set [3] (organic solvents) was “very readily soluble”. The figures for the LD50 in [4] and in data set [6] were above 2500 mg/kg and above 500 mg/kg, respectively. Moreover, the minimal inhibitory concentration (MIC) against Poria Vaporaria (336 h, Poria Vaporaria, 2 weeks at 28° C., 60-70% relative humidity) worked out at 2 µg/mL (≈ 5.76 µM); in the data set with Chaetomium globosum (setting [10]), 10 µg/mL (≈ 28.8 µM); in the data set with Ceratocystis pini (setting [10]) it was 20 µg/mL (≈ 57.6 µM); against Coniophora cerebella (setting [10]) it was 10 µg/mL (≈ 28.8 µM); in data set [5] (setting [10]) it was 20 µg/mL (≈ 57.6 µM); in the data set with Lentinus tigrinus (setting [10]), 5 µg/mL (≈ 14.4 µM). In addition, in the data set on male rats [7], the “percutaneous toxicity compared with the other sulphamide (in words)” value was “just as low a toxicity”.
Turning to `CN(C)S(=O)(=O)N(SC(F)(Cl)Cl)c1ccccc1` [B, N,N-dimethyl-N'-phenyl-N'-dichlorofluoromethylthio-sulphamide], the Solubility was 1.2 % by weight in data set [3] (setting [8]); 11 % by weight in [3] (Ethyl acetate); 1.5 % by weight in [3] (Methanol); 7.5 % by weight in data set [3] (setting [9]); 6.5 % by weight in data set [3] (Xylene). Further, the “solubility (in words)” value in data set [3] (formulating agents customary for wood protection agents) was “very poor solubility”.
